We go through 14 molecules from US9493453B2, “Piperazinyl pyrimidine derivatives, preparation method and use thereof” (INSTITUTE OF PHARMACOLOGY AND TOXICOLOGY ACADEMY OF …, priority 2012, dated 2016).

The term inhibition denotes the change of the read-out against control, counted positive when it falls.

In one experiment the test system is mice rhinitis model. The experiment in a line: Mice rhinitis model experiment (OVA-sensitized BALB/c mice). Format: in vivo. The conditions noted are these: Example 8 compound 1 μg/Kg, budesonide 1.28 mg/Kg. On the procedure: Mice Rhinitis Model Experiment
Female BALB/c mice (6-8 weeks) were sensitized with chicken ovalbumin (OVA, Sigma-Aldrich, St Louis, Mo., USA). The compound of the present invention (for example, the compound of Example 8) was administered to nasal mucosa, at a dose 1 μg/Kg. Glucocorticoid hormonal drug budesonide, a first-line clinical drug, was used as positive control, at a dose 1.28 mg/Kg. Meanwhile, there were provided a normal group wherein the mice were not sensitized and not administered, and an OVA group wherein the mice were sensitized and not administered. The following five indicators were detected: the number of sneezing, the number of nasal scratching within 10 min after administration; IL-4 level in bronchoalveolar lavage fluid; serum IgE level; lung tissue inflammation score. Lung tissue inflammation score was rated according to a single blind method: inflammation was divided into four levels from mild to severe, marked as 0-3 scores: 0 representing no detected inflammation; 1 representing occasional inflammatory cells being visible; 2 representing bronchus or blood vessel being surrounded by eosinophils, but less than five cell layers; 3 representing bronchus or blood vessel being surrounded by a large number of eosinophils, with 5 or more cell layers.

A further experiment concerns the target T1, CCR4 receptor (Homo sapiens, UniProt P51679).
T1 construct: cDNA fragments of receptor open reading frame were respectively inserted into pcDI; expressed in transfected cells; host or cells: HEK293 cells, transiently transfected by electroporation with pCDI-CCR4
T1 sequence (P51679 1-360): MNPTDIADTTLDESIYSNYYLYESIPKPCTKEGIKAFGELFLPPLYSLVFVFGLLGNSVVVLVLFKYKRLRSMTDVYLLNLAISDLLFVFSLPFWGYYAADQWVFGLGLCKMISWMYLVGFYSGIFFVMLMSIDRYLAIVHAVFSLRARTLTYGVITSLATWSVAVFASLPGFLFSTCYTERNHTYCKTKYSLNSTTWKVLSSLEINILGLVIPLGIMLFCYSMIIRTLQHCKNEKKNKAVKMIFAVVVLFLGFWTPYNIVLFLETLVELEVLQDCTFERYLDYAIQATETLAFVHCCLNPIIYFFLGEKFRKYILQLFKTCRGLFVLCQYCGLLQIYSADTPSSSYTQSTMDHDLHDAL
Nature of the experiment: Inhibition of MDC/TARC/C27 mediated chemotactic response of CCR4-transfected HEK293 cells (Boyden chamber). Format: cell-based. The conditions noted are these: chemotactic inhibition rate, compound 1 μM, HEK293 cells transfected with pCDI-CCR4, 5 hours. An excerpt:
Whether or not compounds 1-14 of the present invention can inhibit MDC (Peprotech) mediated chemotactic response of HEK293 cells was studied by using Boyden chamber (Neuro Probe, Inc.).
1. Construction of Receptor Expression Plasmid:
cDNA fragments including human chemokine receptor open reading frame were obtained by the following method: CCR4 receptor was cloned from a cDNA library of K562 cells through polymerase chain reaction (PCR). Primers were designed according to the sequence of Gen-Bank™ accession: CCR4 (NM_005508.2). cDNA fragments of receptor open reading frame were respectively inserted into pcDI (vector transformed in the chamber: eukaryotic expression vector obtained by replacing a BglII KpnI fragment of pcDNA3 (Invitrogen Corporation) plasmid with a BglII KpnI fragment of pCI (Promega Corporation) plasmid) expression vector so as to make them effectively express in HEK293 cells.
HEK293 cells were cultured in RPMI 1640 (Life Technologies, Inc.) containing 10% heat-inactivated fetal bovine serum, 100 U/mL penicillin, 100 μg/mL streptomycin. Each 4×10^6 HEK293 cells/400 μL were transiently transfected through electroporation with 15 μg chemokine receptor expression plasmids, under the condition of 120 V for 20 ms, the instrument used being electric pulse generator (Electro Square porator ECM 830, BTX, San Diego, Calif.). After 36-48 hr, chemotactic assay was carried out.
3. The Inhibitory Effect on MDC/TARC/C27 Mediated Chemotactic Response of HEK293 Cells
Chemokines MDC/TARC/C27 were diluted to 10 ng/mL with RPMI1640 (Life Technologies, Inc.), 0.1% BSA (Sigma), and added to lower holes in a 48-hole chemotactic chamber, 27.5 μL each hole. Eukaryotic expression plasmids pCDI-CCR4 were electrically shifted to HEK293 cells, and cultured normally for 36 hr. The cells were digested, re-suspended with RPMI1640, 10% FBS (Life Technologies, Inc.), and subjected to rotary incubation at 37° C. for 6.5 hours. The cells were washed twice with RPMI1640, and suspended in RPMI1640, 0.1% BSA, with a final concentration of 1×10^6/mL. The cells and the candidate compound dissolved in DMSO (Sigma) were subjected to rotary incubation at room temperature for half an hour, the final concentration of the candidate compound being 1 μM, and the final concentration of DMSO being 0.1%, and then added to upper holes in the chemotactic chamber, 55 μL each hole. The two layers were spaced by a polycarbon membrane with pore size of […] (Neuro Probe, Inc.). The chemotactic reaction was carried out in 5% CO2 at 37° C. for 5 hours. There were three groups of control in the experiment, wherein the first group was positive control, in which the transfected cells were directly added to upper holes without incubated with the candidate compound, while chemokines MDC/TARC/C27 were added to lower holes. The second group was negative control, in which the transfected cells were directly added to upper holes without incubated with the candidate compound, while RPMI1640, 0.1% BSA were added to lower holes. The third group was solvent DMSO control of the candidate compound, in which the transfected cells and DMSO were incubated at room temperature, the final concentration of DMSO being 0.1%, while chemokines MDC/TARC/C27 were added to lower holes. After completion of the chemotactic reaction, the membrane was removed, fixed and stained, and, at 400× high magnification, five horizons were randomly selected to count the cells, which were then summed. The ratio of the sum of the numbers of cells in five horizons at high magnification in each experimental group to the sum of the numbers of cells in five horizons at high magnification in the negative control group is obtained as Chemotactic Index (CI). Chemotactic inhibition rate was calculated as follows: […]

The mark [1] stands for this setting: OVA-sensitized female BALB/c mice, nasal mucosa, within 10 min after administration.
[2] abbreviates: chemokine C27 10 ng/mL, read-out: C27 inhibition rate.
Setting [3] is: chemokine MDC 10 ng/mL, read-out: MDC inhibition rate.
Setting [4] is: chemokine TARC 10 ng/mL, read-out: TARC inhibition rate.

Where two headings read alike, the source gives them in different places.

On to `CCCC1O[C@@H]2C[C@H]3[C@@H]4CCC5=CC(=O)C=C[C@]5(C)[C@H]4[C@@H](O)C[C@]3(C)[C@]2(C(=O)CO)O1` (some centres unmarked) [Budesonide, budesonide, reference compound], for which the IL-4 with mice rhinitis model (IL-4 level in bronchoalveolar lavage fluid, OVA-sensitized mice) turned out to be 2.9 ± 1.5 pg/mL. Further, in the experiment with mice rhinitis model (setting [1]), the Nasal scratching was found to be 12.0 ± 1.3 times/10 mins and the Sneezing was determined as 31.7 ± 4.0 times/10 mins. Besides, the Inflammation score with mice rhinitis model (lung tissue inflammation score 0-3, single blind, OVA-sensitized mice) was 1.5 ± 0.6. The IgE in the experiment on mice rhinitis model (serum IgE level, OVA-sensitized mice) came to 2822 ± 51 ng/mL.
For `CCC(=O)N1CCN(c2nc(NCc3ccc(Cl)cc3Cl)cc(N(C)CC(OC)OC)n2)CC1` [Compound 1, 1-{4-{4-[(2,4-dichlorobenzyl)amino]-6-[(2,2-dimethoxyethyl)methylamino]pyrimidin-2-yl}piperazin-1-yl}propanone], the inhibition at 1 µM on CCR4 receptor (setting [2]) turned out to be 25.3%; on CCR4 receptor (setting [3]) it was 36.3%; on CCR4 receptor (setting [4]), 46.4%.
`COC(CN(C)c1cc(NCc2ccc(Cl)cc2Cl)nc(N2CCN(C(=O)C(C)C)CC2)n1)OC` [Compound 2, 1-{4-{4-[(2,4-dichlorobenzyl)amino]-6-[(2,2-dimethoxyethyl)methylamino]pyrimidin-2-yl}piperazin-1-yl}-2-methylpropanone]: the values for the inhibition at 1 µM on CCR4 receptor (setting [2]), at CCR4 receptor (setting [3]) and at CCR4 receptor (setting [4]) were 39%, 36.1% and 41.7%, respectively.
For `COC(CN(C)c1cc(NCc2ccc(Cl)cc2Cl)nc(N2CCN(C(=O)CCSC)CC2)n1)OC` [Compound 3, 1-{4-{4-[(2,4-dichlorobenzyl)amino]-6-[(2,2-dimethoxyethyl)methylamino]pyrimidin-2-yl}piperazin-1-yl}-3-methylthiopropanone], the inhibition at 1 µM on CCR4 receptor (setting [2]) came out at 43.9%; at CCR4 receptor (setting [3]), 35.5%; at CCR4 receptor (setting [4]), 58.3%.
The like results for `CCC(=O)N1CCN(c2nc(NCc3ccc(Cl)cc3Cl)cc(N(CCOC)CCOC)n2)CC1` [Compound 4, 1-{4-{4-[bis(2-methoxyethyl)amino]-6-(2,4-dichlorobenzylamino)-pyrimidin-2-yl}piperazin-1-yl}propanone] were, in that order, 34.6%, 54.9% and 45.2%.
Turning to `COCCN(CCOC)c1cc(NCc2ccc(Cl)cc2Cl)nc(N2CCN(C(=O)C(C)C)CC2)n1` [Compound 5, 1-{4-{4-[bis(2-methoxyethyl)amino]-6-(2,4-dichlorobenzylamino)-pyrimidin-2-yl}piperazin-1-yl}-2-methylpropanone], the inhibition at 1 µM was determined as 40.1% at CCR4 receptor (setting [2]), 54.5% at CCR4 receptor (setting [3]) and 39.1% on CCR4 receptor (setting [4]).
As to `COCCN(CCOC)c1cc(NCc2ccc(Cl)cc2Cl)nc(N2CCN(C(=O)CCSC)CC2)n1` [Compound 6, 1-{4-{4-[bis(2-methoxyethyl)amino]-6-(2,4-dichlorobenzylamino)-pyrimidin-2-yl}piperazin-1-yl}-3-methylthiopropanone], the figures for the inhibition at 1 µM at CCR4 receptor (setting [2]), at CCR4 receptor (setting [3]) and on CCR4 receptor (setting [4]) were 51.2%, 19.4% and 55.7%, respectively.
Take `COCCN(CCOC)c1cc(NCc2ccc(Cl)cc2Cl)nc(N2CCN(C(=O)C3CCCCC3)CC2)n1` [Compound 7, {4-{4-[bis(2-methoxyethyl)amino]-6-(2,4-dichlorobenzylamino)-pyrimidin-2-yl}piperazin-1-yl}cyclohexylmethanone]: the inhibition at 1 µM at CCR4 receptor (setting [2]) turned out to be 37.9%; on CCR4 receptor (setting [3]), 30%; at CCR4 receptor (setting [4]) it was 51%.
The like results for `O=C([C@@H]1CSCCN1)N1CCN(c2nc(Cl)cc(NCc3ccc(Cl)cc3Cl)n2)CC1` [Compound 9, (R)-{4-{4-chloro-6-[(2,4-dichlorobenzyl)amino]pyrimidin-2-yl}piperazin-1-yl}(thiomorpholin-3-yl)methanone] were, in that order, 39.5%, 22.2% and 10.4%.
Consider `CCC(=O)N1CCN(c2nc(NCc3ccc(Cl)cc3Cl)c3cccnc3n2)CC1` [Compound 10, 1-{4-{4-[(2,4-dichlorobenzyl)amino]pyrido[2,3-d]pyrimidin-2-yl}piperazin-1-yl}propanone], for which the inhibition at 1 µM at CCR4 receptor (setting [2]) worked out at 38.3%; on CCR4 receptor (setting [3]), 32.3%; on CCR4 receptor (setting [4]), 59.8%.
The like results for `CC(C)C(=O)N1CCN(c2nc(NCc3ccc(Cl)cc3Cl)c3cccnc3n2)CC1` [Compound 11, 1-{4-{4-[(2,4-dichlorobenzyl)amino]pyrido[2,3-d]pyrimidin-2-yl}piperazin-1-yl}-2-methylpropanone] were, in that order, 35.2%, 32.3% and 61.4%.
The like results for `O=C(C1CCCCC1)N1CCN(c2nc(NCc3ccc(Cl)cc3Cl)c3cccnc3n2)CC1` [Compound 12, cyclohexyl{4-{4-[(2,4-dichlorobenzyl)amino]pyrido[2,3-d]pyrimidin-2-yl}piperazin-1-yl}methanone] were, in that order, 6.17%, 57.2% and 61.1%.
The like results for `CCCN1CCN(c2nc(NCc3ccc(Cl)cc3Cl)c3cccnc3n2)CC1` [Compound 13, 4-[(2,4-dichlorobenzyl)amino]-2-(4-propylpiperazin-1-yl)pyrido[2,3-d]pyrimidine] were, in that order, 16.7%, 48.8% and 35.2%.
Consider `O=C([C@@H]1CSCCN1)N1CCN(c2nc(NCc3ccc(Cl)cc3Cl)c3cccnc3n2)CC1` [Compound 14, (R)-{4-{4-[(2,4-dichlorobenzyl)amino]pyrido[2,3-d]pyrimidin-2-yl}piperazin-1-yl}(thiomorpholin-3-yl)methanone], for which the inhibition at 1 µM is 30.5% on CCR4 receptor (setting [2]), 62.1% at CCR4 receptor (setting [3]) and 73.6% on CCR4 receptor (setting [4]).
